The numbers were not newly measured in patent publication US20200222348A1, “BIMODAL MODIFIED RELEASE COMPOSITIONS FOR CANCER TREATMENT” (MUSLI THYROPEUTICS LTD., priority 2017, published 2020), which cites them from elsewhere.

For this data set the following is noted: stated as general knowledge.

Turning to `N[C@@H](Cc1cc(I)c(Oc2ccc(O)c(I)c2)c(I)c1)C(=O)O` [Example T3, triiodothyronine], the biological half-life (T3, short biological half-life) is listed as 48-60 hours. Moreover, the Tmax in serum result (T3 in serum) was “about 4 hrs”.
